Read-outs that look alike come from different tables or passages of the source.
Tests used:
[1] = system: ZIKV; assay: RT-qPCR analysis of virus genomes, ZIKV; assay type: cell-based; settings: Zika virus
Procedure: Vero cells were infected with ZIKV at an MOI of 1 for 2 h (post infection), after which virus was removed, and fresh maintenance medium containing 2% FCS together with the indicated concentration of C10 added. For co-treat condition, Vero cells were infected with ZIKV at an MOI of 1 in the presence of C10 for 2 h, followed by removal of the virus/C10 inoculums, and addition of fresh 2% fetal calf serum maintenance medium. […] Results represent the mean ±SD for duplicate wells from a single assay (cf. Table 2 for pooled data).
Viral RNA was extracted using Isolate II RNA extraction kit (Bioline), and the absolute number of RNA copies determined by Taqman One Step RT-qPCR (Applied Biosystems) by extrapolation from a standard curve generated from in vitro—transcribed virus RNA.
It was decided to test the ability of C10 to inhibit the flaviviruses DENV1-4, KUNV and ZIKV, in addition to the paramyxovirus RSV, as a control.

[2] = system: Huh7.5 cells; assay: Viability of treated Huh7.5 cells by MTT assay; assay type: cell-based; settings: 10 μM, 24 h after treatment
Procedure: Huh7.5 cells were electroporated with HCV-JC1-Luc (reporter virus expressing luciferase via IRES) RNA and treated 24 h later with the best 20 candidates (10 μM). After another 24 h the supernatants were harvested. To quantify infectious particles, untreated Huh7.5 cells were inoculated with the supernatants and 36 h later the luciferase activity was measured. The viability of the same cells was determined 24 h after treatment with inhibitor by MTT assay (tetrazolium salt which is reduced in metabolically active cells resulting in a color change). For both parameters, 100% corresponds to the release or viability of the untreated or DMSO treated control. uninf.=not infected; untr.=not treated. Mean values and SD were derived from n =3 independent infections.
The viability of the same cells was determined 24 h after treatment with the candidate substances by MTT assay (tetrazolium salt reduced in metabolically active cells resulting in a color change) (FIG. 2). For both parameters, 100% of release or viability corresponds to the untreated or DMSO-treated control.

Question: Which results are given for `CCN1/C(=C\C=C\c2sc3cc(NC(C)=O)ccc3[n+]2CC)Sc2cc(NC(C)=O)ccc21.[I-]` [C10, 6-acetamido-2-((1E,3E)-3-(6-acetamido-3-ethylbenzo[d]thiazol-2(3H)-ylidene)prop-1-en-1-yl)-3-ethylbenzo[d]thiazol-3-ium iodide]?
Answer: EC50 ([1]; read-out: EC50 from RT-qPCR analysis, ZIKV, c.t.): 440 nM; EC50 ([1]; read-out: EC50 from RT-qPCR analysis, ZIKV, p.i.): 1130 ± 1100 nM; cell viability (MTT) [2]: no negative effect on cell viability
